These results are taken from patent US8435939B2, “Polypeptide anti-HIV agent containing the same” (priority 2000, dated 2013).

The nature of one series: in vitro. It counts as in vitro ADME, cat. The conditions noted are these: serum. As for the experimental part:
T140 or TC14012 was dissolved in cat serum (100 μL/100 μL Water) in an amount of 100 nmol, and maintained at 37° C. Each 8 μL of the respective samples were collected after 0 hour, 1 hour, 2 hours, 5 hours and 16 hours, and analyzed by reverse phase HPLC using 16% acetonitrile.

Series [1] can be described thus: Cytotoxicity Test II: human PBMC, trypan blue dyeing method. It counts as cell-based. As to conditions: human PBMC, trypan blue dyeing method; read-out: CC50 (Test II), 50% survival concentration.
Series [2] deals with human peripheral blood mononuclear cells (PBMC). The description is as above. It counts as cell-based. The conditions noted are these: selective index, PBMC CC50 over anti-HIV EC50.
A short description of series [3]: Cytotoxicity Test I: virus-uninfected MT-4 cells, MTT method. It counts as cell-based. The conditions noted are these: human, MT-4 cells (virus-uninfected); virus-uninfected MT-4 cells, MTT method; read-out: CC50 (Test I), 50% survival concentration. As to the method: (§1) HIV-1 (IIIB) strain obtained from MOLT/HIV-1 (IIIB) cell previously infected by HIV-1 was used. The polypeptide of the present invention was added to MT-4 CD4^+ T cells infected by HIV in various kinds of concentrations, and a number of living cells after culturing at 37° C. for 5 days was determined by using a 3′-(4,5-dimethylthiazol-2-yl)-2,5-diphenyltetrazolinium bromide (MTT) method. Anti-HIV activity is shown by a concentration (EC50 value), where MT-4 cell death by HIV infection is inhibited by 50%. Cytotoxicity of the peptide according to the present invention was shown by a 50% survival concentration (Test I: CC50 value) by culturing virus-uninfected MT-4 cells with the polypeptide according to the present invention in various concentrations, and determining a number of living cells by the MTT method. Moreover, a number of living cells of human peripheral blood mononuclear cells (monocyte) (PBMC) was determined by trypan blue dyeing method, and shown by a 50% survival concentration (Test II: CC50 value). Respective ratios of the CC50 value and the EC50 value were shown as a selective index (SI). Obtained values were summarized in Table 3 using the conventionally known polypeptides T134 and T140, and an anti-HIV compound: 3′-azido-2′,3′-dideoxythymidine (AZT) used as a medicine as a control anti-HIV agent.

Series [4] deals with virus-uninfected MT-4 cells. Described as above. Format: cell-based. As to conditions: for SI: CC50 (Test I)/EC50: selective index, MT-4 CC50 over anti-HIV EC50. As for the experimental part: as §1
The next series relates to HIV-1 (IIIB) strain. In words: Anti-HIV activity: inhibition of MT-4 cell death by HIV infection (MTT method). Format: cell-based.

Where a SMILES comes first, the peptide text is derived from it. Bridges are numbered along the chain shown (N, C = ends). [ ]: non-standard residue; d: D form. 2Nal = N[C@@H](Cc1ccc2ccccc2c1)C(=O)O; Cit = NC(=O)NCCC[C@H](N)C(=O)O Where only a bound is given, the exact number is not on record here.

As for `NCCCC[C@@H]1NC(=O)[C@H](CCCN=C(N)N)NC(=O)[C@H](Cc2ccc(O)cc2)NC(=O)[C@@H](NC(=O)[C@H](Cc2ccc3ccccc3c2)NC(=O)[C@H](CCCN=C(N)N)NC(=O)[C@@H](N)CCCN=C(N)N)CSSC[C@@H](C(=O)N[C@@H](CCCN=C(N)N)C(=O)O)NC(=O)[C@H](CCCNC(N)=O)NC(=O)[C@H](CCCN=C(N)N)NC(=O)[C@H](Cc2ccc(O)cc2)NC(=O)[C@@H]2CCCN2C(=O)[C@@H](CCCCN)NC1=O` [Compound T140, H-Arg-Arg-Nal-Cys-Tyr-Arg-Lys-DLys-Pro-Tyr-Arg-Cit-Cys-Arg-OH, reference compound] (H-RR[2Nal]CYRK[dK]PYR[Cit]CR-OH; disulfide 4-13), the metabolised at 16 h, 0.5 mM in “in vitro” was ~70%. The CC50 in series [1] is 96 µM; in series [3] it was > 1 µM. Also, in series [2], the “SI: CC50 (Test II)/EC50” value stood at 29000. Besides, in series [4], the “SI: CC50 (Test I)/EC50” value is >>300.
As for `NCCCC[C@@H]1NC(=O)[C@H](CCCN=C(N)N)NC(=O)[C@H](Cc2ccc(O)cc2)NC(=O)[C@@H](NC(=O)[C@H](Cc2ccc3ccccc3c2)NC(=O)[C@H](CCCN=C(N)N)NC(=O)[C@@H](N)CCCN=C(N)N)CSSC[C@@H](C(=O)N[C@@H](CCCN=C(N)N)C(=O)O)NC(=O)[C@H](CCCNC(N)=O)NC(=O)[C@H](CCCN=C(N)N)NC(=O)[C@H](Cc2ccc(O)cc2)NC(=O)[C@@H]2CCCN2C(=O)[C@@H](CCCNC(N)=O)NC1=O` [TC14005, H-Arg-Arg-NaI-Cys-Tyr-Arg-Lys-DCit-Pro-Tyr-Arg-Cit-Cys-Arg-OH], the EC50 in the series on HIV-1 (IIIB) strain (MT-4 CD4+ T cells infected by HIV-1 (IIIB), 37° C., 5 days, MTT, average of at least three measurements, read-out: EC50 (concentration where MT-4 cell death by HIV infection is inhibited by 50%)) came out at 0.004 µM. Also, the “anti-HIV activity in words, compared with T140” value in the series with HIV-1 (IIIB) strain (conclusion drawn from Table 3) is reported as “substantially the same anti-HIV activity as that of the conventionally known T140”. For the same compound, the figures for the CC50 in series [1] and in series [3] were 280 µM and > 80 µM, respectively. The “SI: CC50 (Test II)/EC50” value in series [2] was found to be 69000. In addition, in series [4] (conclusion drawn from Table 3), the “cytotoxicity in words, compared with conventional T134/T140” value is recorded as “cytotoxicity is markedly lowered”. The “SI: CC50 (Test I)/EC50” value in series [4] was >20000.
